For this experiment, the system named is E. coli K5, bacterial growth. Nature of the experiment: E. coli K5 growth effect of capsule formation inhibitors, K5 capsule type, follow-up screen (AID 624061). Conditions: stronger effect = lower value.

Regarding `CCOc1ccc(-c2cc(NC(=O)c3c(F)cccc3F)c(C(=O)O)s2)cc1`, the bacterial growth reads like this: (at 100 µM) 109%; (growth, at 50 µM) 106%.
